Some results are limits rather than exact numbers.

`N#Cc1cccc(N=C(NCC(=O)O)NCC2CCCCC2)c1`: the melting point (as a rule, the temperature, or range, at which the solid turns liquid) is 80 to 83 °C.

With `CN1CC(CO)C(c2ccccc2)(c2ccccc2)C1=O` (stereo not given), the melting point was 148 to 150 °C.

`CN(c1cccc2cc(C3=NCC(CC(=O)N4CCOCC4)S3)[nH]c12)S(=O)(=O)c1cccs1` (stereo not given): the melting point lay in the range of 173 to 174 °C.

The compound `COc1cccc(OC)c1C(=O)P(=S)(CC(C)C)C(=O)c1c(OC)cccc1OC` came in with a melting point of 145 to 147 °C.

`c1ccc(COc2ccc(CCOc3ccc(CCNc4ncnc5nccnc45)cc3)cc2)cc1` came in with a melting point of 120 to 122 °C.

Turning to `O=C1CCCc2ccn(-c3ccccc3)c21`, the melting point lay within 66 to 68 °C.

The compound `O=c1[nH]c2ccc(I)cc2c(=O)n1-c1ccc(Cl)cc1` returned a melting point of 324 to 326 °C.

In turn, `CNc1cnc(-c2cccnc2)s1` gave a melting point of 141 to 146 °C.

In turn, `CC(=O)Nc1nc(CCCl)cs1` came in with a melting point of 161 to 163 °C.

As to `CN(C)c1ccc2c(c1)OCCC2=O`, the melting point is 109 to 120 °C.

In turn, `CCOC(=O)c1cn(C)c2nc(Cl)ncc2c1=O` returned a melting point of 205 °C.

In turn, `COCCN1Cc2c(cnc3c(NC(=O)c4c(Cl)cccc4Cl)cccc23)C1=O` registered a melting point of 246 °C.

For the compound `COc1ccc([C@H](O)[C@@H](Cc2ccc(C(F)(F)F)cc2)NC(=O)c2ccc(F)c3ccccc23)cc1` (racemic), the melting point lay in the range of 184 to 185 °C.

Consider `CC(=O)CC(=O)Nc1cccc(C(F)(F)F)c1`, for which the melting point was in the range of 109 to 110 °C.

`C[C@@H]1CNCCN1C(=O)OC(C)(C)C` yielded a melting point of 33 to 36 °C.

Consider `CCOC(=O)CC(CCCNC(=O)c1csc(NC(=O)NCc2ccccc2)n1)c1ccccc1` (racemic), for which the melting point was determined as 93 °C.

In turn, `Clc1ccc2nc(-n3cccn3)nnc2c1` displayed a melting point of 188 °C.

In turn, `COc1ccccc1N1CCN(C(=O)Nc2nc(C)c(C)nc2OC)CC1` showed a melting point of 184 to 185 °C.

Compound `O=C1COC(=O)C1=Cc1cccc(C(F)(F)F)c1` returned a melting point of 108 to 109 °C.

`N#CC(C#N)=CN(N=C(C#N)C#N)c1ccc(F)cc1F` came in with a melting point of 140 to 142 °C.

The compound `CCCCc1nc(SC)c(C(=O)O)n1Cc1ccc(-c2ccccc2-c2nnn[nH]2)cc1` yielded a melting point of 180 °C.

The compound `O=S(=O)(O)c1ccc(NCc2ccc(Cl)cc2)cc1` yielded a melting point of over 270 °C.

Regarding `Cc1ccccc1C=CC(=O)OCCc1ccccc1`, the melting point is 52 to 53 °C.

Regarding `O=C(c1ccncc1)c1cc(-c2ccncc2)c(N2CCOCC2)s1`, the melting point worked out at 124 °C.

The compound `C=CC1=C(C(=O)OCC)C(C(F)(F)F)Oc2ccc(Cl)cc21` (stereo not given) had a melting point of 51.9 to 53.2 °C.

For the compound `CN1CCN(Cc2ccc(NC(=O)n3ccc4cc(Oc5cc(CC(N)=O)ncn5)ccc43)cc2C(F)(F)F)CC1`, the melting point fell in the range of 221 to 223 °C.

The compound `CCCc1nc2c(N)nc3c(c2n1CCOCCS(C)(=O)=O)CCCC3` had a melting point of 153 to 155 °C.

On to `Clc1ccc(CCCN2CCc3cc(OC[C@H]4CO[C@](Cn5ccnc5)(c5ccc(Cl)cc5)O4)ccc3C2)cc1` (racemic), for which the melting point fell in the range of 101 to 103 °C.

For the compound `Nc1nc2ccccc2c2c1nc(-c1ccccc1)n2CCCCNC(=O)c1cccnc1`, the melting point lay within 84.5 to 86.1 °C.

Take `CC(C)C(C(=O)OCc1nn(Cc2ccccc2)c(=O)o1)c1ccc(Cl)cc1` (stereo not given): the melting point stood at 70 °C.

For the compound `CC(=O)N1C(=O)C2(COc3cc4c(cc32)OCCO4)c2ccccc21` (stereo not given), the melting point is 236 to 238 °C.

As for `Clc1ccccc1-n1nnnc1Cl`, the melting point was in the range of 101 to 103 °C.

For `COc1ccc(Cl)cc1-c1cccc2c1OC(CN)C2` (stereo not given), the melting point lay within 149 to 152 °C.

Take `CSC(=C[N+](=O)[O-])NCCSCc1ccc(CN(C)C)o1`: the melting point turned out to be 71 °C.

For the compound `O=C(NC(=O)C(Br)CBr)Nc1ccccc1` (stereo not given), the melting point was in the range of 160 to 161 °C.

Take `CCCCCCCCCCOC(=O)CS(=O)(=O)Nc1c(C(C)C)cccc1C(C)C`: the melting point lay in the range of 65 to 67 °C.

On to `CN(Cc1ccc(C2=NCCN2)cc1)C(=O)OCc1ccccc1`, for which the melting point stood at 84 °C.

In the case of `CCc1nnc(-c2ccc(O)cc2)n1-c1ccc(O)cc1`, the melting point lay in the range of 317 to 318 °C.

`CCCCCCc1ccc(-c2ccc(-c3ncc(C(N)=O)cn3)cc2)cc1` showed a melting point of over 260 °C.

For `CN(C)C=Nc1ccc(-c2ncnn2-c2ccc(F)cc2)cc1`, the melting point is 159 to 161 °C.

For the compound `COc1cc2cc(-c3ccc4c(c3)OCO4)nc(C)c2cc1OC`, the melting point is 174 °C.

Consider `Cc1cc(C)c2c(-c3coc4cc(C)cc(C)c34)coc2c1`, for which the melting point was in the range of 98 to 100 °C.

The compound `COC(=O)c1ccc(Cl)nc1C1=NC(=O)C(C)(C(C)C)N1` (stereo not given) gave a melting point of 102 to 104 °C.

Take `Fc1ccc(Nc2ccnc3cc(Cl)ccc23)cc1`: the melting point was 214 to 216 °C.

Turning to `COC(OC)C1(C)CN=C(c2cc3cccc(N(C)S(=O)(=O)c4cccs4)c3[nH]2)S1` (stereo not given), the melting point was 153 to 154 °C.

Regarding `CS(=O)(=O)c1ccc(Oc2ccc([N+](=O)[O-])c(NCCC(N)=O)c2)c(Cl)c1`, the melting point was 135 °C.

For `c1cc(-c2nc3c4c(ncc3[nH]2)CCOC4)no1`, the melting point was over 300 °C.

In turn, `CCCN(Cc1ccc(-c2ccccc2-c2nnn[nH]2)cc1)C1(C(=O)O)C=NSN1` (stereo not given) registered a melting point of 97 to 98 °C.

`CC(C)c1nn(-c2ccc(C(F)(F)F)cn2)cc1CCCOc1nn(C)cc1CC(=O)O` displayed a melting point of 122 to 123 °C.

Consider `Cc1ccc(C2COc3c(C)c(C)c(NC(=O)CC(C)(C)C)c(C)c32)nc1` (stereo not given), for which the melting point is 170 to 171 °C.

In the case of `O=C(C(=O)c1ccccc1Br)c1ccc(F)cc1`, the melting point was 72 to 78 °C.

As to `CCOC(=O)C(=O)Nc1c([N+](=O)[O-])cc(Cl)cc1C(F)(F)F`, the melting point lay within 100 to 101 °C.

Compound `CCCCCCCCCCCCCCCCCCOc1ccccc1NC(=O)CC(=O)C(C)(C)SCC` gave a melting point of 60 to 62 °C.

As to `CN1CCC(=C2c3ccccc3CCc3ccc(CO)cc32)CC1`, the melting point lay in the range of 178 to 181 °C.

In the case of `CC(C)c1nc(C(C)C)c(CO)c(-c2ccc(F)cc2)c1/C=C/c1ccccc1`, the melting point was 107 to 110 °C.

For `N#Cc1cc(N)ccc1N(CCO)CCO`, the melting point is 38 °C.

Regarding `CNC(=O)N(O)C(C)c1ccc(C#Cc2ccccc2)cc1` (stereo not given), the melting point was 138 to 141 °C.

As to `CN1Cc2c(-c3nc(CCl)co3)ncn2-c2ccccc2C1=O`, the melting point fell in the range of 196 to 198 °C.

Consider `CCOc1cc(C(CC(=O)O)N2Cc3ccccc3C2=O)ccc1OC` (stereo not given), for which the melting point worked out at 194 °C.

The compound `COc1ccc(CNc2nc(CCCC(=O)O)nc3[nH]c4ccccc4c23)cc1Cl` yielded a melting point of 143 °C.

Compound `Oc1ccc2c(ccn2-c2ccnc(N[C@H]3CC[C@H](O)CC3)n2)c1` came in with a melting point of 246 to 248 °C.

The compound `CN(C)C=Cc1cccc(CC(=O)O)c1[N+](=O)[O-]` came in with a melting point of 124 to 126 °C.

`O=C1CCC(=O)N1CCS` came in with a melting point of 45 °C.

`CCCCc1ccc(-c2nc(F)c(-c3ccc(OC)cc3)o2)cc1` displayed a melting point of 72 °C.

`CCOC(=O)[C@H](CSC[C@H](Cc1ccccc1)NC(=O)OCc1ccccc1)N[C@@H](C)C(=O)O` showed a melting point of 124 to 127 °C.

Take `CCCCOC(=N)c1sc2ccccc2c1O`: the melting point is 185 °C.

`CC(C)[C@@H]1C[C@@H](CO)NC1=O` showed a melting point of 55.9 °C.

Consider `CN=C1SCN(C(C)(C)C)C(=O)N1C`, for which the melting point was 51 to 52 °C.

On to `CCCC(NOCC)=C1C(=O)CC(c2cc3ccccc3[nH]c2=O)CC1=O` (stereo not given), for which the melting point lay within 155 to 157 °C.

`CC(ON=c1c2nccc3cccc(c32)n2cccc12)C(=O)O` (stereo not given) returned a melting point of 225 °C.

As to `CC1(C)COc2cc3ccccc3c(=O)n21`, the melting point lay in the range of 91 to 92 °C.

Turning to `O=C(c1ccccc1)c1ccc2c([N+](=O)[O-])c(O)c(O)cc2c1`, the melting point was in the range of 196 to 205 °C.

Turning to `N#Cc1c2ccccc2c(-c2cc(Br)c(O[C@@H](Cc3ccccc3)C(=O)O)c(Br)c2)c2c1sc1ccccc12`, the melting point was 176 to 178 °C.

As to `CCNC(=O)Cc1ccc2ccn(C3CCN(CCc4ccc(F)cc4)CC3)c2c1`, the melting point amounted to 160 °C.

With `COC(=O)c1nc2c(c(-c3ccccc3)nn2-c2ccccc2)c(N)c1C(=O)OC`, the melting point is 277 to 279 °C.

As to `O=C(Cc1cc(C(=O)c2ccc(I)c([N+](=O)[O-])c2)sc1-c1ccccc1)NO`, the melting point was 147 to 151 °C.

On to `CCCC(=O)Cc1ccc(C(=O)Nc2ccc3cc(CN4CCCCCC4)cnc3c2C)cc1`, for which the melting point is 136 to 137 °C.

In turn, `Nc1nccc(-c2c[nH]c3nccc(Cl)c23)n1` returned a melting point of over 210 °C.

`CCCc1[nH]c2cc(C(=O)OC)ccc2c1C(=O)C=C(C)C`: the melting point lay in the range of 146 to 147 °C.

In the case of `O=[N+]([O-])c1ccc(COP(=O)(COS(=O)(=O)C(F)(F)F)OCc2ccc([N+](=O)[O-])cc2)cc1`, the melting point was 73 to 75 °C.

For the compound `CCCc1oc(C)cc(=O)c1C(=O)Nc1ccccc1`, the melting point was in the range of 133 to 134 °C.

`O=S(=O)(NN=C(Cl)c1cc(Cl)ccc1Cl)c1ccccc1` returned a melting point of 133 to 135 °C.

As for `CCOC(=O)CNc1cc(Cl)nc(NCc2ccc(Cl)cc2)n1`, the melting point was in the range of 168 to 170 °C.

`CCOC(=O)ONC(=N)COc1cc(OCC(=N)NOC(=O)OCC)c2c(C)c(Cc3ccccc3)c(=O)oc2c1` registered a melting point of 87 to 92 °C.

On to `Cc1nc(O)c2c(n1)CCN(c1nc(C)nc(O)c1[N+](=O)[O-])CC2`, for which the melting point was over 200 °C.

Take `Cc1nc2ncc(C(=O)NCc3ccc(Cl)cc3)c(O)c2cc1Br`: the melting point was 269 to 270 °C.

Take `Cc1cc(C2(C(F)(F)F)CC(Cl)=NO2)ccc1NC(=O)OC(C)(C)C` (stereo not given): the melting point lay within 83 to 85 °C.

In turn, `COc1ccc(COC(=O)C2N3C(=O)C(N4C(=O)c5ccccc5C4=O)C3SCC2(C)O)cc1` (stereo not given) gave a melting point of 216 to 217 °C.

With `O=C(O)COc1cc(F)c(F)cc1C(=O)NCc1ccc(Br)cc1F`, the melting point was 156 to 158 °C.

For the compound `NC(=O)C1Cc2cc(F)ccc2N1` (stereo not given), the melting point is 197 to 199 °C.
